Active and inactive are the calls of the source.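 The calls were made as follows: active = AC50, the dose giving half-maximal effect, exceeds a fixed cutoff for a compound that rescues yeast growth under heat; inactive = the rest, inconclusive results apart.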
What follows are molecules tested on S. cerevisiae Burl-1 ts mutant growth, BacTiter-Glo, 38.5C 24 h (assay: restored growth of temperature-sensitive Burl-1 yeast – whole organism, S. cerevisiae, Burl-1 ts mutant, luminescence, counter-screen for SUMOylation pathway inhibitor project, dose response (AID 463199)).
In the case of COc1ccc(C(=O)O)cc1S(=O)(=O)NCCN(C)C, the AC50 is reported as > 42 µM (inactive).
COCC(=O)Nc1c(C(=O)Nc2ccc3c(c2)OCO3)oc2ccccc12 was tested, and the AC50 was > 42 µM (inactive).
With COc1ccc(-n2nc(C(=O)NCC(=O)N3CCCC3)c3ccccc3c2=O)c(OC)c1 the AC50 was > 42 µM (inactive).
For COC(=O)c1cc2c(s1)-c1ccc(OC)cc1CC2, the AC50 was > 42 µM (inactive).
In the case of COc1ccc(-c2csc(NC(=O)CS(=O)(=O)c3ccc(F)cc3)n2)cc1OC, the AC50 is reported as > 42 µM (inactive).
With COCC(=O)NNC(=O)c1ccccc1OC the AC50 was > 42 µM (inactive).
For O=C(COC(=O)[C@@H]1CC(O)CN1S(=O)(=O)c1ccccc1[N+](=O)[O-])Nc1ccc2ccccc2c1 (some centres undefined), the AC50 was > 42 µM (inactive).
With CCCCc1nnc(NC(=O)CSc2nc(O)c(-c3ccccc3)c(=O)[nH]2)s1 the AC50 was > 42 µM (inactive).
For Cc1cc2c(cc1C)-c1nnc(-c3ccc4ccccc4n3)n1C(C)(C)C2, the AC50 was > 42 µM (inactive).
For CCc1nccn1S(=O)(=O)c1cc(OC)ccc1OC, the AC50 was > 42 µM (inactive).
O=C(COc1ccc(-n2cnnn2)cc1)NCCc1ccc(F)cc1 was tested, and the AC50 was > 42 µM (inactive).
In the case of O=C(O)c1ccc(N=C2NC(=O)C(CO)(CO)S2)cc1, the AC50 is reported as > 42 µM (inactive).
For COc1ccc(NC(=O)CSc2nnc(-c3ccccn3)n2-c2ccccc2)cc1OC, the AC50 was > 42 µM (inactive).
O=C(CCSc1nnc(-c2ccncc2)o1)Nc1ccc(Cl)cc1 was tested, and the AC50 was > 42 µM (inactive).
For CC(C)C(=O)Nc1cccc(-c2nc3ncccc3o2)c1, the AC50 was > 42 µM (inactive).
COCCN(C(=O)CSc1nnc(-c2ccc(C)cc2)n1N)c1c(N)n(Cc2ccccc2)c(=O)[nH]c1=O was tested, and the AC50 was > 42 µM (inactive).
With CN1C(=O)c2ccc(NC(=S)NC(=O)C(C)(C)C)cc2C1=O the AC50 was > 42 µM (inactive).
With CCOC(=O)N1CCN(C(=O)c2ccccc2-c2ccccc2)CC1 the AC50 was > 42 µM (inactive).
CCOC(C(=O)OCCCN(CC)CC)(c1ccccc1)c1ccccc1 was tested, and the AC50 was > 42 µM (inactive).
With Cc1cc(C(=O)NN)n[nH]1 the AC50 was > 42 µM (inactive).
For Cc1ccc(N(C(=O)Cn2nnc3ccccc32)C(C(=O)NC2CCCCC2)c2cn(C)nc2C)cc1 (centres undefined), the AC50 was > 21 µM (inactive).
In the case of COc1cc(SC)ccc1C(=O)N1CCCCCC1, the AC50 is reported as > 42 µM (inactive).
With Fc1cccc(F)c1-c1nc(-c2ccncc2)no1 the AC50 was > 42 µM (inactive).
For CCOC(=O)c1c(/N=C/C2C(=O)CCCC2=O)sc2c1CCCC2, the AC50 was > 42 µM (inactive).
CC(C)c1ccc(NC(=O)COc2nnc(-c3cccs3)c(-c3cccs3)n2)cc1 was tested, and the AC50 was > 42 µM (inactive).
With COc1ccc(C(=O)NCC(=O)Nc2ccccc2)cc1OC the AC50 was > 42 µM (inactive).
In the case of CCCCCC(=O)Nc1nnn(CCC)n1, the AC50 is reported as > 42 µM (inactive).
For CC(C)c1ccc(-c2cc(C(=O)N3CCOCC3)c3cc(Br)ccc3n2)cc1, the AC50 was > 42 µM (inactive).
For O=C(CSc1nnc(-c2ccccc2Cl)o1)Oc1ccc(Br)cc1, the AC50 was > 42 µM (inactive).
CCC(c1nc2ccccc2c(=O)n1-c1nc2ccccc2s1)N1C(=O)c2ccccc2C1=O (centres undefined) was tested, and the AC50 was > 42 µM (inactive).
For COCCn1c(=O)[nH]c(=O)c2cc(C(=O)c3cc(Cl)ccc3O)cnc21, the AC50 was > 42 µM (inactive).
With Cc1ccc(S(=O)(=O)N(C)c2ccc(OC(=O)CN3C(=O)NC4(CCCC4)C3=O)cc2)cc1C the AC50 was > 42 µM (inactive).
CC1(C)c2[nH]c3ccccc3c2C[C@H]2C(=O)N(Cc3cccc(F)c3)C(=O)N21 was tested, and the AC50 was > 42 µM (inactive).
With COc1ccc(C(=O)CSc2nnc3ccc(-c4ccccn4)nn23)cc1 the AC50 was > 42 µM (inactive).
With Oc1c(Br)cc(Cl)cc1C=Nc1ccccc1Br the AC50 was > 42 µM (inactive).
CC(C)C[C@@H](CO)N1CCN(Cc2cccnc2)CCC1=O was tested, and the AC50 was > 42 µM (inactive).
O=C(c1ccc(-c2ccccc2)cc1)C1CCCN(Cc2ccncc2)C1 (centres undefined) was tested, and the AC50 was > 42 µM (inactive).
Cc1cc(C)c(S(=O)(=O)NCC(c2cccnc2)N2CCN(Cc3ccccc3)CC2)c(C)c1 (centres undefined) was tested, and the AC50 was > 42 µM (inactive).
For Cc1ccc(N(CC(=O)NCCc2ccc(Cl)cc2)S(=O)(=O)c2c(C)noc2C)cc1, the AC50 was > 42 µM (inactive).
Cc1nc(N2CCN(c3ccccn3)CC2)c2c(C)c(C(=O)N3CCN(c4ccccc4F)CC3)sc2n1 was tested, and the AC50 was > 42 µM (inactive).
With Cc1ccccc1C(=O)NNC(=O)/C=C\C(=O)O the AC50 was > 42 µM (inactive).
With O=C1CCC(=O)N1CCOP1(=O)COc2ccccc2OC1 the AC50 was > 42 µM (inactive).
With CCOC(=O)Cc1csc(NC(=O)NC2(C(F)(F)F)Oc3ccccc3O2)n1 the AC50 was > 42 µM (inactive).
In the case of CCOc1ccc(-c2nc(C#N)c(N3CCOCC3)o2)cc1, the AC50 is reported as > 42 µM (inactive).
For CC(=O)N1CCC2(CC1)CC(=O)c1cc(OCC(=O)N3CCCC3)ccc1O2, the AC50 was > 42 µM (inactive).
CCCC1Cc2c(sc3ncnc(N)c23)CO1 (centres undefined) was tested, and the AC50 was 9.15 µM.
With N#Cc1ccc(Oc2ccc(S(=O)(=O)N3CCCCC3)cn2)cc1 the AC50 was > 42 µM (inactive).
In the case of CCOc1ccc(C(=O)Nc2ccc(CN3CCOCC3)cc2)cc1Br, the AC50 is reported as 41.9 µM.
For CCn1c(-c2ccccc2)c(C(=O)CC#N)c2ccccc21, the AC50 was > 42 µM (inactive).
With CCOc1ccccc1C(=O)NCc1ccc2c(c1)OCO2 the AC50 was > 42 µM (inactive).
O=C(Nc1ccncc1Cl)c1ccncc1 was tested, and the AC50 was > 42 µM (inactive).
Fc1ccc(-c2nnc3ccc(N4CCCC4)nn23)cc1 was tested, and the AC50 was > 42 µM (inactive).
With O=C(CSc1nnc(-c2ccc(Br)cc2)o1)Nc1cccc2ccccc12 the AC50 was > 42 µM (inactive).
With O=S1(=O)CC(N2CCCCC2)C(N2CCCCC2)C1 (centres undefined) the AC50 was > 42 µM (inactive).
With O=C(c1ccc(CS(=O)(=O)c2ccccc2)o1)N1CCOCC1 the AC50 was > 42 µM (inactive).
For CCOC(=O)c1cccc(NC(=O)C2CCCN(S(=O)(=O)c3c(C)n[nH]c3C)C2)c1 (centres undefined), the AC50 was > 42 µM (inactive).
With NNC(=O)c1oc2nc(-c3ccccc3)cc(-c3ccccc3)c2c1N the AC50 was > 42 µM (inactive).
CCc1cc(/C(Cc2ccccn2)=N\O)c(O)cc1O was tested, and the AC50 was > 42 µM (inactive).
CC(C)CCNC(=O)Nc1ccc2c(c1)N(C)C(=O)CS2 was tested, and the AC50 was > 42 µM (inactive).
NS(=O)(=O)c1cccc(NC(=O)CSc2nnnn2-c2ccccc2)c1 was tested, and the AC50 was > 42 µM (inactive).
With CCCCC1=CC2=CC(=O)C(C)(OC(=O)CC)C(=O)C2=CN1CCCOC(C)C (centres undefined) the AC50 was > 42 µM (inactive).
CN(C)c1ccc(NC(=O)CSc2nc(N)c(C(=O)Nc3ccc(N(C)C)cc3)s2)cc1 was tested, and the AC50 was > 42 µM (inactive).
With COc1cccc(-c2ocnc2C(=O)Nc2ccc3c(c2)CCC3)c1 the AC50 was > 42 µM (inactive).
In the case of Fc1ccc(-c2cc(C(F)(F)F)nc(NCc3cccs3)n2)cc1, the AC50 is reported as > 42 µM (inactive).
In the case of CCOCCCNC(=O)C(c1ccc(OC)cc1)N(Cc1cccs1)C(=O)c1ccccn1 (centres undefined), the AC50 is reported as > 42 µM (inactive).
Cc1ccc(N(C(=O)CCl)C(C(=O)NC2CCCCC2)c2cccnc2)cc1C (centres undefined) was tested, and the AC50 was > 42 µM (inactive).
With CC(NC(=O)c1cnc2n(c1=O)CCS2)c1ccccc1 (centres undefined) the AC50 was > 42 µM (inactive).
In the case of O=C(N/N=C\c1cn(-c2ccccc2)nc1-c1ccccc1)c1ccc(Br)o1, the AC50 is reported as > 42 µM (inactive).
In the case of CC(C)N=C(NS(=O)(=O)NC(=O)c1ccccc1)c1ccccc1, the AC50 is reported as > 42 µM (inactive).
In the case of COc1ccccc1N1CCN(C(=O)C(=O)N/N=C/c2ccccc2F)CC1, the AC50 is reported as > 42 µM (inactive).
For CCOc1cc(S(=O)(=O)NCc2ccc3c(c2)OCO3)c(C)cc1C, the AC50 was > 42 µM (inactive).
In the case of CN(C)c1ccc(/C=N\Nc2ccccn2)cc1, the AC50 is reported as > 42 µM (inactive).
With COc1cccc(C(=O)N2CCN(S(=O)(=O)Cc3ccccc3)CC2)c1OC the AC50 was > 42 µM (inactive).
In the case of COc1cc(/C=C(\NC(=O)c2ccccc2)C(=O)Nc2nccs2)ccc1OC(C)=O, the AC50 is reported as > 42 µM (inactive).
With Fc1cccc(NC(=S)N2CCn3cccc3C2c2cccnc2)c1 (centres undefined) the AC50 was > 42 µM (inactive).
In the case of O=C(Nc1ccccc1N1CCOCC1)c1cc(Br)c(Br)s1, the AC50 is reported as > 42 µM (inactive).
In the case of COc1ccc(N2CCN(C(=O)CNC(=O)Cc3ccc(Cl)cc3)CC2)cc1, the AC50 is reported as > 42 µM (inactive).
With CCN(CCn1cccn1)C(=O)C1CCC(=O)N(CCc2cccc(F)c2)C1 (centres undefined) the AC50 was > 42 µM (inactive).
In the case of Cc1nc2c3ccccc3nc(NNC(=O)CCC(=O)N3CCCC(C)C3)n2n1 (centres undefined), the AC50 is reported as > 42 µM (inactive).
With O=C(CCN1C(=O)S/C(=C/c2ccccc2)C1=O)Nc1ccc(O)c(C(=O)O)c1 the AC50 was > 42 µM (inactive).
In the case of Oc1cccc2ccc(/C=C/c3ccccc3Br)nc12, the AC50 is reported as > 42 µM (inactive).
CSc1ccccc1-n1nnnc1SCC(=O)Nc1ccccc1C was tested, and the AC50 was > 42 µM (inactive).
In the case of COc1cc2c(=O)n(CCC(=O)NCC3CCCO3)c(=O)n(CC(=O)Nc3ccccc3C)c2cc1OC (centres undefined), the AC50 is reported as > 42 µM (inactive).
With COCCN1C(=O)/C(=C/c2cc3c(cc2Br)OCO3)NC1=S the AC50 was > 42 µM (inactive).
For Cc1ccc(N2C(=O)C3N=NN(CC(=O)N4N=C(c5cccc6ccccc56)CC4c4ccccc4)C3C2=O)cc1 (centres undefined), the AC50 was > 21 µM (inactive).
For Cc1ccc(SCC(=O)O/N=C(\N)c2cccc([N+](=O)[O-])c2)cc1, the AC50 was > 42 µM (inactive).
COc1ccc(OC)c(N(CC(=O)N2CCCC2)S(=O)(=O)c2ccccc2)c1 was tested, and the AC50 was > 42 µM (inactive).
With CN(C(=O)c1ccncc1)c1nnc(-c2cnccn2)s1 the AC50 was > 42 µM (inactive).
With Cc1c(=O)n(OCc2ccccn2)c2ccccc2[n+]1[O-] the AC50 was > 42 µM (inactive).
With CCOc1ccc(S(=O)(=O)N2CCC(C(=O)N3CCN(c4ccccc4)CC3)CC2)cc1 the AC50 was > 42 µM (inactive).
CCCC(O)(c1ccc(Br)cc1)C(CN1CCOCC1)c1ccc(Cl)cc1 (centres undefined) was tested, and the AC50 was > 42 µM (inactive).
For CC(=O)c1cccc(N2C(=NC(=O)C3CCCCC3)SC3CS(=O)(=O)CC32)c1 (centres undefined), the AC50 was > 42 µM (inactive).
For O=C(NCc1ccccc1)c1cccc(COc2ccc(Cl)cc2)c1, the AC50 was > 42 µM (inactive).
In the case of O=C(CN1CCN(C(=O)c2ccccc2)CC1)Nc1ncc(Br)cc1Br, the AC50 is reported as > 42 µM (inactive).
For Cc1sc(NC(=O)c2ccc(Br)s2)c(C(N)=O)c1C, the AC50 was > 42 µM (inactive).
In the case of CCOCCn1c(-c2ccc(OC)cc2)nc2ccccc21, the AC50 is reported as > 42 µM (inactive).
In the case of Cn1c(=O)[nH]c(=O)c2c1nc(NCCN)n2CCOc1ccccc1, the AC50 is reported as > 42 µM (inactive).
For O=C(CCNC(=O)c1ccccc1)Nc1cccnc1, the AC50 was > 42 µM (inactive).
With COc1ccc(-c2[nH]ncc2CNCCn2cccn2)c(F)c1 the AC50 was > 42 µM (inactive).

Source: PubChem BioAssay AID463199 (Broad Institute, 2010)
